Tests used:
[1] = biological target: T1, human quinone reductase 2 (QR2) (Homo sapiens, UniProt P16083); assay: QR2 steady-state kinetic assay; assay type: biochemical; details: for inhibitory activity against QR2: result in words
T1 sequence (P16083 1-231): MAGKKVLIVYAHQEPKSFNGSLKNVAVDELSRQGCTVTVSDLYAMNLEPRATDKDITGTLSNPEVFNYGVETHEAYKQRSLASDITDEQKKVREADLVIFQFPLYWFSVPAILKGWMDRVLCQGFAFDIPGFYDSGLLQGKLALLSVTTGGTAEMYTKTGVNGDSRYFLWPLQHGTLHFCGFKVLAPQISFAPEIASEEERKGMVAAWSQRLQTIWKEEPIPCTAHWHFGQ

[2] = tested on: normal prostate stromal cells (PrSCs); details: result in words; cited from earlier work
[3] = tested on: normal prostate epithelial cells (PrECs); details: result in words; cited from earlier work

With `COC(=O)c1cc(C(N)=O)nc2cc(N)c(N)c(Cl)c12` [Compound 23, Methyl 6,7-Diamino-2-carbamoyl-5-chloroquinoline-4-carboxylate] the “increase in QR2 inhibitory activity” value ([1]; relative to 12) was 10 fold.
In the case of `COC(=O)C1CC(O)(C(=O)OC)c2c(N)c(Cl)cc(Cl)c2N1` (centres unmarked) [Compound 26, Dimethyl 5-Amino-6,8-dichloro-4-hydroxy-1,2,3,4-tetrahydroquinoline-2,4-dicarboxylate], the “inhibitory activity against QR2” value [1] is reported as “none showed inhibitory activity”.
With `COC(=O)C1CC2(O)C(=O)Nc3c(Cl)cc(Cl)c(c32)N1` (centres unmarked) [Compound 33, Methyl 6,8-Dichloro-2a-hydroxy-2-oxo-1,2,2a,3,4,5-hexahydropyrrolo[4,3,2-d,e]quinoline-4-carboxylate] the “inhibitory activity against QR2” value [1] was “none showed inhibitory activity”.
For `Oc1ccc(/C=C/c2cc(O)cc(O)c2)cc1` [resveratrol], the “effect on cellular proliferation of PrSCs” value [2] is given as “dose-dependent inhibition of cellular proliferation” and the “effect on PrEC growth” value [3] is given as “no effect”.
